Results as given in patent US5684151A, “1-arylsulphonyl, arylcarbonyl and 1-arylphosphonyl-3-phenyl-1,4,5,6-tetrahydropyridazines” (priority 1995, dated 1997).
Like-named read-outs stand apart in the source and are kept apart here.

Columns and labels:
[1] = target: T1, progestin receptor from rabbit uterus (Oryctolagus cuniculus, UniProt P06186); assay: Progestin receptor binding (3H-R5020 displacement); settings: rabbit uterine cytosol, 4° C., 18 h, read-out: IC50: Binding affinity for the progestin receptor from rabbit uterus
T1 construct: Cytosolic progestin receptor were obtained by mixing rabbit uterine tissue with a Tris buffer; from tissue; host or cells: rabbit uterus cytosol
Procedure: A progestin initiates a biological response by first binding to a progestin receptor. Affinity for progestin receptors was determined by measuring the ability of compounds to displace a progestin radioligand from those receptors in vitro. Cytosolic progestin receptor were obtained by mixing rabbit uterine tissue with a Tris buffer [0.1M Tris-Hcl, 1 mM Na2 EDTA, 1 mM dithiothreotol, 1 mM sodium molybdate, 1% glycerol, pH 7.4]. The tissue/buffer mixture was homogenized under ice-cold conditions. The homogenate was then centrifuged and the supernatant (cytosol preparation) was decanted and stored at -70° C. and thawed prior to use. The competitive binding assay was performed by mixing ^3 H-R5020, a progestin radioligand, with cytosol preparation and various concentrations of test compounds (prepared in DMSO with a final 5% DMSO concentration). This mixture was then incubated at 4° C. for about 18 hours. Non-specific binding was determined using an unlabelled ligand in excess. After the incubation period, the radioligand bound to receptor was separated from free radioligand using dextran-coated charcoal. The amount of bound radioligand was then determined by liquid scintillation counting. The data were expressed as the concentration of test compound that displaced 50% of the radioligand from the receptor (IC50)
Aspects of the application used in this procedure are described in the following: J. L. McGuire et al., Biochemistry 13, 319, 1974.

[2] = tested on: mouse (MC3T3-E1) and human (TE-85) osteoblast-line cells; assay type: cell-based
Excerpt: Compounds of the present invention have utility to treat osteoporosis through enhancement of bone calcification rather than traditional approaches which generally involve inhibition of bone degeneration or resorption. The compounds of the present invention have been evaluated as stimulators of proliferation of osteoblast cell and chick calivaria bone organ culture which is predictive of enhancement of bone mass and bone formation in vivo.
The action of select compounds to stimulate osteoblast growth was measured in culture by estimating the rate of DNA synthesis by the rate of ^3 H-thymidine incorporation into DNA. Only cells undergoing mitosis synthesized new DNA and thus only these cells incorporated the radiolabelled DNA-specific thymidine. The stimulation of the proliferation and differentiation of bone-forming cells, osteoblasts, was a prerequisite for an increase in bone formation and bone mass. The ability of agents to increase osteoblast proliferation and differentiation can be predicted by their action on cultured osteoblast-line cells in vitro. In this test, mouse (MC3T3-E1) and human (TE-85) osteoblast-line cells (American Type Tissue Culture Collection, #CRL 1543, Rockville, Md. cloned by Sudo et al., Koriyama, Japan) were cultured in vitro and the effect of various agents were tested on osteoblast cell proliferation. Cells were harvested from large culture flasks where they were allowed to grow to near confluency using trypsin. The cells were plated into 96 well culture plates, 1600 cells in 100 μL per well in Dulbencos Modified Eagle's Medium (DMEM) with 25 mM HEPES buffer, L-glutamine (584 mg/L); D-glucose (4.5 g/L) supplemented with fetal bovine sera (10%); penicillin (100 units/mL) and streptomycin (100 mcg/mL); sodium pyruvate (10 μM final concentration). The cells were allowed to plate overnight in DMEM containing 10% fetal bovine sera at 37° C. in an atmosphere of 5% CO2/95% air. Following their placement into 96 well culture plates all the osteoblast-line cells, either the MC3T3-E1 or the TE-85 cell lines, were allowed an additional 24 hours preincubation period in media containing only 0.1% fetal bovine sera.
Twenty hours later, a 20 μL aliquot of media containing 0.4 μCi of ^3 H-thymidine was added to each culture well. The cells were then incubated an additional 4 hours. The incubation was terminated by aspirating the media and washing with HBSS (Hank's Balanced Salt Solution). The cells were then treated with 100 μL of 0.5% trypsin and 5.3 mM EDTA for 30 minutes at room temperature. The cells were then aspirated onto glass fiber filter and washed with water. The radioactivity on the filters was quantified by liquid scintillation spectroscopy. The rate of ^3 H-thymidine incorporation into DNA was then utilized as an index of cell proliferation. The results are shown in Table 13 expressed as % times control where the control is 100%. […]

T1 sequence (P06186 whole entry): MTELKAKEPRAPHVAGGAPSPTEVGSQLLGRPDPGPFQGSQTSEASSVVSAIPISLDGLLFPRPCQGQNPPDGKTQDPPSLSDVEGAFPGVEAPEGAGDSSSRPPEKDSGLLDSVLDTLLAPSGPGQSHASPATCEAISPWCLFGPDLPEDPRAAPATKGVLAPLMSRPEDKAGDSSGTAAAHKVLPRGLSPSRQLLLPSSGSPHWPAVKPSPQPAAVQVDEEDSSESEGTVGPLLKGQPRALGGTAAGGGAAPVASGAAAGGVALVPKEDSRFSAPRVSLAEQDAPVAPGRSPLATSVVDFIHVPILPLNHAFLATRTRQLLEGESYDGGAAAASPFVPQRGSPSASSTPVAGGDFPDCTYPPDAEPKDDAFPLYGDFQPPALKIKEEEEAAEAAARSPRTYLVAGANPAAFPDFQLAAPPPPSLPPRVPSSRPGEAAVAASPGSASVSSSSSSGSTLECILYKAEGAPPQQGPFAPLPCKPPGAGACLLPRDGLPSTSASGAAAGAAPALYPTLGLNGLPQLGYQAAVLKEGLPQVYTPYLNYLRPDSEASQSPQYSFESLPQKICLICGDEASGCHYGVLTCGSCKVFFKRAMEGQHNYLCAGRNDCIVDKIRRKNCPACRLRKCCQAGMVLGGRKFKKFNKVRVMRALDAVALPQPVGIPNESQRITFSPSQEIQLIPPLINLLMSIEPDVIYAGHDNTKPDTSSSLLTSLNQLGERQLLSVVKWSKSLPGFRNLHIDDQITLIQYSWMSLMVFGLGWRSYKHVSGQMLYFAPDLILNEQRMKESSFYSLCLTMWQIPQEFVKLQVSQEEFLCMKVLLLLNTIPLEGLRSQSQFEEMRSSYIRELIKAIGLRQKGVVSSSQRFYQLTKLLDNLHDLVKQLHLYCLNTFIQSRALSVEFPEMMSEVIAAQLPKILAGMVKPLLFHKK

## Cc1ccc(S(=O)(=O)N2CCCC(c3ccccc3)=N2)cc1 [Compound 2]
[1]
  IC50: 3 µM
[2]; 10^-6
  Osteoblast Cell Proliferation, 3H-thymidine incorporation vs control (100%): 105%
[2]; 10^-7
  Osteoblast Cell Proliferation, 3H-thymidine incorporation vs control (100%): 119%
[2]; 10^-8
  Osteoblast Cell Proliferation, 3H-thymidine incorporation vs control (100%): 99%
[2]; 10^-9
  Osteoblast Cell Proliferation, 3H-thymidine incorporation vs control (100%): 91%
[2]; 10^-10
  Osteoblast Cell Proliferation, 3H-thymidine incorporation vs control (100%): 77%

## COc1ccc(C2=NN(S(=O)(=O)c3ccc(C)cc3)CCC2)cc1 [Compound 3]
[1]
  IC50: 10 µM
[2]; 10^-6
  Osteoblast Cell Proliferation, 3H-thymidine incorporation vs control (100%): 92%
[2]; 10^-7
  Osteoblast Cell Proliferation, 3H-thymidine incorporation vs control (100%): 110%
[2]; 10^-8
  Osteoblast Cell Proliferation, 3H-thymidine incorporation vs control (100%): 115%
[2]; 10^-9
  Osteoblast Cell Proliferation, 3H-thymidine incorporation vs control (100%): 138%
[2]; 10^-10
  Osteoblast Cell Proliferation, 3H-thymidine incorporation vs control (100%): 118%

## O=[N+]([O-])c1ccc(S(=O)(=O)N2CCCC(c3ccc(Cl)cc3)=N2)cc1 [Compound 4]
[1]
  IC50: 0.201 µM
[2]; 10^-6
  Osteoblast Cell Proliferation, 3H-thymidine incorporation vs control (100%): 108%
[2]; 10^-7
  Osteoblast Cell Proliferation, 3H-thymidine incorporation vs control (100%): 111%
[2]; 10^-8
  Osteoblast Cell Proliferation, 3H-thymidine incorporation vs control (100%): 155%
[2]; 10^-9
  Osteoblast Cell Proliferation, 3H-thymidine incorporation vs control (100%): 153%
[2]; 10^-10
  Osteoblast Cell Proliferation, 3H-thymidine incorporation vs control (100%): 158%

## O=S(=O)(c1cc(Cl)ccc1Cl)N1CCCC(c2ccc(Cl)cc2)=N1 [Compound 5]
[1]
  IC50: 0.0053 µM
[2]; 10^-6
  Osteoblast Cell Proliferation, 3H-thymidine incorporation vs control (100%): 89%
[2]; 10^-7
  Osteoblast Cell Proliferation, 3H-thymidine incorporation vs control (100%): 106%
[2]; 10^-8
  Osteoblast Cell Proliferation, 3H-thymidine incorporation vs control (100%): 124%
[2]; 10^-9
  Osteoblast Cell Proliferation, 3H-thymidine incorporation vs control (100%): 108%
[2]; 10^-10
  Osteoblast Cell Proliferation, 3H-thymidine incorporation vs control (100%): 114%

## O=S(=O)(c1ccc(Cl)cc1)N1CCCC(c2ccc(Cl)cc2)=N1 [Compound 6]
[1]
  IC50: 0.015 µM
[2]; 10^-6
  Osteoblast Cell Proliferation, 3H-thymidine incorporation vs control (100%): 81%
[2]; 10^-7
  Osteoblast Cell Proliferation, 3H-thymidine incorporation vs control (100%): 97%
[2]; 10^-8
  Osteoblast Cell Proliferation, 3H-thymidine incorporation vs control (100%): 106%
[2]; 10^-9
  Osteoblast Cell Proliferation, 3H-thymidine incorporation vs control (100%): 114%
[2]; 10^-10
  Osteoblast Cell Proliferation, 3H-thymidine incorporation vs control (100%): 121%

## Cc1ccc(S(=O)(=O)N2CCCC(c3ccc(F)cc3)=N2)cc1 [Compound 9]
[1]
  IC50: 0.362 µM
[2]; 10^-6
  Osteoblast Cell Proliferation, 3H-thymidine incorporation vs control (100%): 65%
[2]; 10^-7
  Osteoblast Cell Proliferation, 3H-thymidine incorporation vs control (100%): 94%
[2]; 10^-8
  Osteoblast Cell Proliferation, 3H-thymidine incorporation vs control (100%): 128%
[2]; 10^-9
  Osteoblast Cell Proliferation, 3H-thymidine incorporation vs control (100%): 102%
[2]; 10^-10
  Osteoblast Cell Proliferation, 3H-thymidine incorporation vs control (100%): 119%

## O=[N+]([O-])c1ccc(S(=O)(=O)N2CCCC(c3ccc(F)cc3)=N2)cc1 [Compound 10]
[1]
  IC50: 1.05 µM
[2]; 10^-6
  Osteoblast Cell Proliferation, 3H-thymidine incorporation vs control (100%): 91%
[2]; 10^-7
  Osteoblast Cell Proliferation, 3H-thymidine incorporation vs control (100%): 90%
[2]; 10^-8
  Osteoblast Cell Proliferation, 3H-thymidine incorporation vs control (100%): 123%
[2]; 10^-9
  Osteoblast Cell Proliferation, 3H-thymidine incorporation vs control (100%): 115%
[2]; 10^-10
  Osteoblast Cell Proliferation, 3H-thymidine incorporation vs control (100%): 139%

## O=S(=O)(c1cc(Cl)ccc1Cl)N1CCCC(c2ccc(F)cc2)=N1 [Compound 11]
[1]
  IC50: 0.02 µM
[2]; 10^-6
  Osteoblast Cell Proliferation, 3H-thymidine incorporation vs control (100%): 106%
[2]; 10^-7
  Osteoblast Cell Proliferation, 3H-thymidine incorporation vs control (100%): 135%
[2]; 10^-8
  Osteoblast Cell Proliferation, 3H-thymidine incorporation vs control (100%): 156%
[2]; 10^-9
  Osteoblast Cell Proliferation, 3H-thymidine incorporation vs control (100%): 131%
[2]; 10^-10
  Osteoblast Cell Proliferation, 3H-thymidine incorporation vs control (100%): 154%

## O=S(=O)(c1ccc(Br)cc1)N1CCCC(c2ccc(Cl)cc2)=N1 [Compound 13]
[1]
  IC50: 0.009 µM
[2]; 10^-6
  Osteoblast Cell Proliferation, 3H-thymidine incorporation vs control (100%): 88%
[2]; 10^-7
  Osteoblast Cell Proliferation, 3H-thymidine incorporation vs control (100%): 109%
[2]; 10^-8
  Osteoblast Cell Proliferation, 3H-thymidine incorporation vs control (100%): 114%
[2]; 10^-9
  Osteoblast Cell Proliferation, 3H-thymidine incorporation vs control (100%): 109%
[2]; 10^-10
  Osteoblast Cell Proliferation, 3H-thymidine incorporation vs control (100%): 152%

## O=[N+]([O-])c1cccc(S(=O)(=O)N2CCCC(c3ccc(Cl)cc3)=N2)c1 [Compound 14]
[1]
  IC50: 0.007 µM
[2]; 10^-6
  Osteoblast Cell Proliferation, 3H-thymidine incorporation vs control (100%): 96%
[2]; 10^-7
  Osteoblast Cell Proliferation, 3H-thymidine incorporation vs control (100%): 109%
[2]; 10^-8
  Osteoblast Cell Proliferation, 3H-thymidine incorporation vs control (100%): 118%
[2]; 10^-9
  Osteoblast Cell Proliferation, 3H-thymidine incorporation vs control (100%): 136%
[2]; 10^-10
  Osteoblast Cell Proliferation, 3H-thymidine incorporation vs control (100%): 139%
